Results on three molecules are retold here after publication PMC10824666 (Nature Cancer, 2023).

Read-outs that look alike come from different tables or passages of the source.

Holding throughout (assay): biochemical
Parameters in all cases: Eurofins DiscoverX kinase panel, competitive binding assay at 1 uM, percent of DMSO control
Common to all, as to details: competitive binding, percent of DMSO control

The target in one test is FGFR1 (Homo sapiens, UniProt P11362). In short, it runs like this:
(§1)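 Single-point profiling at 1 µM compound in a competition-binding format against 96 kinases, read out as POC relative to control; n = 1.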

For the next test, the target named is T1, PKC ε (Homo sapiens, UniProt Q02156).
T1 construct: gene PRKCE
T1 sequence (Q02156 1-737): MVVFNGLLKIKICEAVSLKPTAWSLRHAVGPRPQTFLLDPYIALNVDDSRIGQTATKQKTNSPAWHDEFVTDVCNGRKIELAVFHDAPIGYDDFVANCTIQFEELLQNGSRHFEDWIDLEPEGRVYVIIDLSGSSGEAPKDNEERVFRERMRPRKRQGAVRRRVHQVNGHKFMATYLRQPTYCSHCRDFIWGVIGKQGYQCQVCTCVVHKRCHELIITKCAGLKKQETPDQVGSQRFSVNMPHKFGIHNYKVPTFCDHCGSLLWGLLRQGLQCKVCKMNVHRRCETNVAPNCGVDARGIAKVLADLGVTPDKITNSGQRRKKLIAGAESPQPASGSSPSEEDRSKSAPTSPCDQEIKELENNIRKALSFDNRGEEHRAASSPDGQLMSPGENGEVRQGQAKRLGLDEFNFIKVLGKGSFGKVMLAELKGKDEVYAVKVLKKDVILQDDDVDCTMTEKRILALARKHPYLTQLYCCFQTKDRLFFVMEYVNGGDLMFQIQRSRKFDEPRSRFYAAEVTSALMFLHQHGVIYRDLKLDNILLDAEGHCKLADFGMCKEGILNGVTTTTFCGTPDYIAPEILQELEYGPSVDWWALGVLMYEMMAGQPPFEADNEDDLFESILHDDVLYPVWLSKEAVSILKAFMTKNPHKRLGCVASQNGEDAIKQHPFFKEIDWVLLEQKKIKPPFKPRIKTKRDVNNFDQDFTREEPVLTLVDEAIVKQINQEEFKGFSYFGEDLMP
In short, it runs like this:
as §1

The target of a further test is T2, RSK 1 (Homo sapiens, UniProt Q15418).
T2 construct: gene RPS6KA1
T2 sequence (Q15418 whole entry): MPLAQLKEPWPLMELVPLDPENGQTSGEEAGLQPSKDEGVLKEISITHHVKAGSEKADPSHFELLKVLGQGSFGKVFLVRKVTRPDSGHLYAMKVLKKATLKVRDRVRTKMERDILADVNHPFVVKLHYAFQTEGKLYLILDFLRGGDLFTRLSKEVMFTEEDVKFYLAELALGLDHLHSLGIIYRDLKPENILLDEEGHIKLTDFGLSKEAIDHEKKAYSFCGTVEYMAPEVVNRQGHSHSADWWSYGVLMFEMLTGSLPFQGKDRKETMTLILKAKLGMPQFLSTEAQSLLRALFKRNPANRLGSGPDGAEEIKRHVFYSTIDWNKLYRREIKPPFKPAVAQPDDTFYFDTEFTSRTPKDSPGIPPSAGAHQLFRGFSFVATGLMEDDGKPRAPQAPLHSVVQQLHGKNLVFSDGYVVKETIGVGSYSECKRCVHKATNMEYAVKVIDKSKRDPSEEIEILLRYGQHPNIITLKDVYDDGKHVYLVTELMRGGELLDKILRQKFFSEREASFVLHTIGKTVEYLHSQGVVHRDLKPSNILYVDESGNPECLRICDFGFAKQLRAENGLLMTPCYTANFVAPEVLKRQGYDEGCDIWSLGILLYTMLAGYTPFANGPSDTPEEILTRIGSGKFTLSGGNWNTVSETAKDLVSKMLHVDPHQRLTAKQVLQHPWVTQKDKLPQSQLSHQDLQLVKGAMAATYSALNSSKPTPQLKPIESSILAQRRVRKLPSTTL
In short, it runs like this:
as §1

The next test has as its target T3, Trk-A (Homo sapiens, UniProt P04629).
T3 construct: gene NTRK1
In short, it runs like this: as §1

The next test concerns the target T4, p38 α (Homo sapiens, UniProt Q16539).
T4 construct: gene MAPK14
Put shortly: as §1

Setting [1] is: read-out: Kinome Profiling performed by Eurofins DiscoverX / AM-0277, 1.0 µM / POC.
Where [2] appears, read: read-out: Kinome Profiling performed by Eurofins DiscoverX / AM-1882, 1.0 µM / POC.
The mark [3] stands for this setting: read-out: Kinome Profiling performed by Eurofins DiscoverX / AM-5308, 1.0 µM / POC.

Sequence of FGFR1 (P11362 whole entry): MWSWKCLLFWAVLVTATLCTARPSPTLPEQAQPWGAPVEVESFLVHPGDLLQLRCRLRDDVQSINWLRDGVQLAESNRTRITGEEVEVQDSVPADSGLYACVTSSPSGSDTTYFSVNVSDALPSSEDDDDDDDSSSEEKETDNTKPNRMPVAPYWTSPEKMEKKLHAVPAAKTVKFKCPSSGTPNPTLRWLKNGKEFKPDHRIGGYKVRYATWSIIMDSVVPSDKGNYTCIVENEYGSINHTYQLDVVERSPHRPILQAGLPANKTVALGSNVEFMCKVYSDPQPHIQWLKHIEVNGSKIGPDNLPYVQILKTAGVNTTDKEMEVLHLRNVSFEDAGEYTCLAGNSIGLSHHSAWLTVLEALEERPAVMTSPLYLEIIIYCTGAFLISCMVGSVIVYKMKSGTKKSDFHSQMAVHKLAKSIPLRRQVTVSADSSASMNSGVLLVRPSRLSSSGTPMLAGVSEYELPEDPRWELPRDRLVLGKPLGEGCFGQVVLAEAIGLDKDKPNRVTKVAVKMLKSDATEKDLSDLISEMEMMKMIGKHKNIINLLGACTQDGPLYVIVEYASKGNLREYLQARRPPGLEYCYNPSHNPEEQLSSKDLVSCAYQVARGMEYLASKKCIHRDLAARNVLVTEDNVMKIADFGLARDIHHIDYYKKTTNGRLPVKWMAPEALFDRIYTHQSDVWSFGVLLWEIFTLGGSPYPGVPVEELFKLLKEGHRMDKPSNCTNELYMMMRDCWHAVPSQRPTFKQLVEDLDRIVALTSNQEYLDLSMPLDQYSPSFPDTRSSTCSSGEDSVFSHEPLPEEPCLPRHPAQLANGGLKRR
T3 sequence (P04629 whole entry): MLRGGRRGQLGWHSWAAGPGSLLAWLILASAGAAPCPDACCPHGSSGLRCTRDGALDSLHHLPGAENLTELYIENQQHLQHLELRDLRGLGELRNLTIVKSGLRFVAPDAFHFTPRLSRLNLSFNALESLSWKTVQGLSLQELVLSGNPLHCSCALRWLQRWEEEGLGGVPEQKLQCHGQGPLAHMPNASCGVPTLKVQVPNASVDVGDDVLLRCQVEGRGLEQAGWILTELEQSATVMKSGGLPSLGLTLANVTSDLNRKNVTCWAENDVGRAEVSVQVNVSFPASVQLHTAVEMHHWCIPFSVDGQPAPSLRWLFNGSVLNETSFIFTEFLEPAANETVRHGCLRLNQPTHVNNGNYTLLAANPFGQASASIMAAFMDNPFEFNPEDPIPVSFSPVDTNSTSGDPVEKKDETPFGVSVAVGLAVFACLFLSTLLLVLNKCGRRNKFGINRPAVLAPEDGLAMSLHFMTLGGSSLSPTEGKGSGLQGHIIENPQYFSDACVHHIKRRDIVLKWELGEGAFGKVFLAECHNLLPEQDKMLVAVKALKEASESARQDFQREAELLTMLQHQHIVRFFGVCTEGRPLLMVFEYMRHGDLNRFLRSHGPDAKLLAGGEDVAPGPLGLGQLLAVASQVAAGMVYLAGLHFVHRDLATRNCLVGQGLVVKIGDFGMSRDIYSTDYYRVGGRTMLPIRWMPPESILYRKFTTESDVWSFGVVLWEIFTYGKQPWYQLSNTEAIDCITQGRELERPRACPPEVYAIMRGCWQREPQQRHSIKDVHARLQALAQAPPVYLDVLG
T4 sequence (Q16539 whole entry): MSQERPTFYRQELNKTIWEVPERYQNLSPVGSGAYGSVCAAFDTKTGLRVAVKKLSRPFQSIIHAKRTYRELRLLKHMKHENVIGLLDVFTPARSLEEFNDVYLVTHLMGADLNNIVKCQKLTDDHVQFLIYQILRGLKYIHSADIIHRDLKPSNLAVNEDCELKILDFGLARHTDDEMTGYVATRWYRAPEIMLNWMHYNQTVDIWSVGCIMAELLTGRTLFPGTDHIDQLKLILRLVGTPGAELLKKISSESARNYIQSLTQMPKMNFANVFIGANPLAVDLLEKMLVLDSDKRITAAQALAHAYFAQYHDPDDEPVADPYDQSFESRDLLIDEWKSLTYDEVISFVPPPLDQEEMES

Turning to `CC(C)(CO)Nc1ccc(C(=O)Nc2cccc(S(=O)(=O)C3CCCC3)c2)c(N2CCC3(CC2)CC3)n1` [AM-0277], the remaining activity at 1 µM at FGFR1 (setting [1]) is 94%; at PKC ε (setting [1]), 100%; at RSK 1 (setting [1]), 100%; on Trk-A (setting [1]) it was 40%; at p38 α (setting [1]), 100%.

Take `CC(C)(C)NS(=O)(=O)c1cccc(NC(=O)c2ccc(S(=O)(=O)NC(C)(C)C)cc2N2CCC3(CC2)CC3)c1` [AM-1882]: the remaining activity at 1 µM on FGFR1 (setting [2]) was 98%; on PKC ε (setting [2]), 93%; at RSK 1 (setting [2]), 100%; on Trk-A (setting [2]) it was 54.5%; on p38 α (setting [2]) it was 100%.

As for `C[C@@H]1CN(c2cccc(NC(=O)c3ccc(NS(=O)(=O)CCO)cc3N3CCC4(CC3)CC4)n2)CCO1` [AM-5308], the remaining activity at 1 µM on FGFR1 (setting [3]) is 94.5%; on PKC ε (setting [3]) it was 97.5%; on RSK 1 (setting [3]) it was 91.5%; at Trk-A (setting [3]) it was 17.5%; at p38 α (setting [3]), 89.5%.
